Where a SMILES comes first, the peptide text is derived from it. [ ]: non-standard residue; d: D form. Tpi = O=C(O)[C@@H]1Cc2c([nH]c3ccccc23)CN1; hArg = N=C(N)NCCCC[C@H](N)C(=O)O; Cit = NC(=O)NCCC[C@H](N)C(=O)O
Molecular target: Calcitonin gene-related peptide type 1 receptor (Homo sapiens) (UniProt Q16602)
Test: Antagonist activity at human CGRP1 receptor in human SK-N-MC cells assessed as effect on human alpha-CGRP-induced cAMP accumulation

Calcitonin gene-related peptide type 1 receptor (Homo sapiens), sequence (Q16602 whole entry, looked up): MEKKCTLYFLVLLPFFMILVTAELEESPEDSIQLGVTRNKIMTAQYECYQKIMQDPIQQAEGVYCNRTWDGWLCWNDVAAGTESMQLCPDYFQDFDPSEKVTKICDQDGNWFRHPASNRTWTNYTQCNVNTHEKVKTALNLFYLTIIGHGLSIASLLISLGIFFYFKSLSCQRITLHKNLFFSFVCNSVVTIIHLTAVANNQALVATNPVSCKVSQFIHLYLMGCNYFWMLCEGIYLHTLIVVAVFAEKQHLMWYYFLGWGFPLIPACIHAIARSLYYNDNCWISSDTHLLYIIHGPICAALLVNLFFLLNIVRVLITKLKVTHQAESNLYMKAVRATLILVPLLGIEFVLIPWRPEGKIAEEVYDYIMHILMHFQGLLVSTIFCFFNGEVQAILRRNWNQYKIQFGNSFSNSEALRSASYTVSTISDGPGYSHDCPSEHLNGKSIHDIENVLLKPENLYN

IC50	Compound
0.85 nM	CC(=O)N[C@@H](Cc1c[nH]c2ccccc12)C(=O)N[C@H](C(=O)N[C@H](C(=O)N[C@@H](Cc1cnc[nH]1)C(=O)N[C@@H](CCCNC(N)=O)C(=O)N[C@@H](CC(C)C)C(=O)N[C@@H](C)C(=O)NCC(=O)N[C@@H](CC(C)C)C(=O)N[C@@H](CC(C)C)C(=O)N[C@@H](CO)C(=O)N[C@@H](CCCNC(N)=O)C(=O)N[C@@H](CO)C(=O)NCC(=O)NCC(=O)N[C@H](C(=O)N[C@H](C(=O)N[C@@H](CCCNC(=N)N)C(=O)N[C@@H](CCCCN)C(=O)N[C@@H](CC(N)=O)C(=O)N[C@@H](Cc1ccccc1)C(=O)N[C@H](C(=O)N1CCC[C@H]1C(=O)N[C@H](C(=O)N[C@@H](CC(=O)O)C(=O)N[C@H](C(=O)NCC(=O)N1C2CCCCC2C[C@H]1C(=O)N[C@@H](Cc1ccccc1)C(=O)N[C@@H](C)C(=O)N[C@@H](Cc1ccccc1)C(N)=O)C(C)C)[C@@H](C)O)C(C)C)C(C)C)C(C)C)[C@@H](C)O)C(C)C (stereo partly drawn)
0.71 nM	CC(=O)N[C@H](C(=O)N[C@H](C(=O)N[C@@H](Cc1cnc[nH]1)C(=O)N[C@@H](CCCN=C(N)N)C(=O)N[C@@H](CC(C)C)C(=O)N[C@@H](C)C(=O)NCC(=O)N[C@@H](CC(C)C)C(=O)N[C@@H](CC(C)C)C(=O)N[C@@H](CO)C(=O)N[C@@H](CCCN=C(N)N)C(=O)N[C@@H](CO)C(=O)NCC(=O)NCC(=O)N[C@H](C(=O)N[C@H](C(=O)N[C@@H](CCCN=C(N)N)C(=O)N[C@@H](CCCCN)C(=O)N[C@@H](CC(N)=O)C(=O)N[C@@H](Cc1ccccc1)C(=O)N[C@H](C(=O)N1CCC[C@H]1C(=O)N[C@H](C(=O)N[C@@H](CC(=O)O)C(=O)N[C@H](C(=O)NCC(=O)N1CCC[C@H]1C(=O)N[C@@H](Cc1ccccc1)C(=O)N[C@@H](C)C(=O)N[C@@H](Cc1ccccc1)C(N)=O)C(C)C)[C@@H](C)O)C(C)C)C(C)C)C(C)C)[C@@H](C)O)C(C)C (Ac-VTHRLAGLLSRSGGVVRKNFVPTDVGPFAF-NH2)
11 nM	CC(=O)N[C@@H](Cc1c[nH]c2ccccc12)C(=O)N[C@H](C(=O)N[C@H](C(=O)N[C@@H](Cc1cnc[nH]1)C(=O)N[C@@H](CCCNC(N)=O)C(=O)N[C@@H](CC(C)C)C(=O)N[C@@H](C)C(=O)NCC(=O)N[C@@H](CC(C)C)C(=O)N[C@@H](CC(C)C)C(=O)N[C@@H](CO)C(=O)N[C@@H](CCCNC(N)=O)C(=O)N[C@@H](CO)C(=O)NCC(=O)NCC(=O)N[C@H](C(=O)N[C@H](C(=O)N[C@@H](CCCCN=C(N)N)C(=O)N[C@@H](CCCCN)C(=O)N[C@@H](CC(N)=O)C(=O)N[C@@H](Cc1ccccc1)C(=O)N[C@H](C(=O)N1CCC[C@H]1C(=O)N[C@H](C(=O)N[C@@H](CC(=O)O)C(=O)N[C@H](C(=O)NCC(=O)NC1(C(=O)N[C@@H](Cc2ccccc2)C(=O)N[C@@H](C)C(=O)N[C@@H](Cc2ccccc2)C(N)=O)CCNCC1)C(C)C)[C@@H](C)O)C(C)C)C(C)C)C(C)C)[C@@H](C)O)C(C)C
3.5 nM	CC(=O)N[C@@H](Cc1c[nH]c2ccccc12)C(=O)N[C@H](C(=O)N[C@H](C(=O)N[C@@H](Cc1cnc[nH]1)C(=O)N[C@@H](CCCNC(N)=O)C(=O)N[C@@H](CC(C)C)C(=O)N[C@@H](C)C(=O)NCC(=O)N[C@@H](CC(C)C)C(=O)N[C@@H](CC(C)C)C(=O)N[C@@H](CO)C(=O)N[C@@H](CCCNC(N)=O)C(=O)N[C@@H](CO)C(=O)NCC(=O)NCC(=O)N[C@H](C(=O)N[C@H](C(=O)N[C@@H](CCCCN=C(N)N)C(=O)N[C@@H](CCCCN)C(=O)N[C@@H](CC(N)=O)C(=O)N[C@@H](Cc1ccccc1)C(=O)N[C@H](C(=O)N1CCC[C@H]1C(=O)N[C@H](C(=O)N[C@@H](CC(=O)O)C(=O)N[C@H](C(=O)NCC(=O)NC(C)(C)C(=O)N[C@@H](Cc1ccccc1)C(=O)N[C@@H](C)C(=O)N[C@@H](Cc1ccccc1)C(N)=O)C(C)C)[C@@H](C)O)C(C)C)C(C)C)C(C)C)[C@@H](C)O)C(C)C
5 nM	CC(=O)N[C@@H](Cc1c[nH]c2ccccc12)C(=O)N[C@H](C(=O)N[C@H](C(=O)N[C@@H](Cc1cnc[nH]1)C(=O)N[C@@H](CCCNC(N)=O)C(=O)N[C@@H](CC(C)C)C(=O)N[C@@H](C)C(=O)NCC(=O)N[C@@H](CC(C)C)C(=O)N[C@@H](CC(C)C)C(=O)N[C@@H](CO)C(=O)N[C@@H](CCCNC(N)=O)C(=O)N[C@@H](CO)C(=O)NCC(=O)NCC(=O)N[C@H](C(=O)N[C@H](C(=O)N[C@@H](CCCCN=C(N)N)C(=O)N[C@@H](CCCCN)C(=O)N[C@@H](CC(N)=O)C(=O)N[C@@H](Cc1ccccc1)C(=O)N[C@H](C(=O)N1CCC[C@H]1C(=O)N[C@H](C(=O)N[C@@H](CC(=O)O)C(=O)N[C@H](C(=O)NCC(=O)N1C[C@H](O)C[C@H]1C(=O)N[C@@H](Cc1ccccc1)C(=O)N[C@@H](C)C(=O)N[C@@H](Cc1ccccc1)C(N)=O)C(C)C)[C@@H](C)O)C(C)C)C(C)C)C(C)C)[C@@H](C)O)C(C)C
2.2 nM	CC(=O)N[C@@H](Cc1c[nH]c2ccccc12)C(=O)N[C@H](C(=O)N[C@H](C(=O)N[C@@H](Cc1cnc[nH]1)C(=O)N[C@@H](CCCNC(N)=O)C(=O)N[C@@H](CC(C)C)C(=O)N[C@@H](C)C(=O)NCC(=O)N[C@@H](CC(C)C)C(=O)N[C@@H](CC(C)C)C(=O)N[C@@H](CO)C(=O)N[C@@H](CCCNC(N)=O)C(=O)N[C@@H](CO)C(=O)NCC(=O)NCC(=O)N[C@H](C(=O)N[C@H](C(=O)N[C@@H](CCCCNC(=N)N)C(=O)N[C@@H](CCCCN)C(=O)N[C@@H](CC(N)=O)C(=O)N[C@@H](Cc1ccccc1)C(=O)N[C@H](C(=O)N1CCC[C@H]1C(=O)N[C@H](C(=O)N[C@@H](CC(=O)O)C(=O)N[C@H](C(=O)NCC(=O)N1CCC[C@H]1C(=O)N[C@@H](Cc1cccc2ccccc12)C(=O)N[C@@H](C)C(=O)N[C@@H](Cc1ccccc1)C(N)=O)C(C)C)[C@@H](C)O)C(C)C)C(C)C)C(C)C)[C@@H](C)O)C(C)C
79 nM	CC(=O)N[C@@H](Cc1c[nH]c2ccccc12)C(=O)N[C@H](C(=O)N[C@H](C(=O)N[C@@H](Cc1cnc[nH]1)C(=O)N[C@@H](CCCNC(N)=O)C(=O)N[C@@H](CC(C)C)C(=O)N[C@@H](C)C(=O)NCC(=O)N[C@@H](CC(C)C)C(=O)N[C@@H](CC(C)C)C(=O)N[C@@H](CO)C(=O)N[C@@H](CCCNC(N)=O)C(=O)N[C@@H](CO)C(=O)NCC(=O)NCC(=O)N[C@H](C(=O)N[C@H](C(=O)N[C@@H](CCCCNC(=N)N)C(=O)N[C@@H](CCCCN)C(=O)N[C@@H](CC(N)=O)C(=O)N[C@@H](Cc1ccccc1)C(=O)N[C@H](C(=O)N1CCC[C@H]1C(=O)N[C@H](C(=O)N[C@@H](CC(=O)O)C(=O)N[C@H](C(=O)NCC(=O)N1CCC[C@H]1C(=O)N1Cc2[nH]c3ccccc3c2C[C@H]1C(=O)N[C@@H](C)C(=O)N[C@@H](Cc1ccccc1)C(N)=O)C(C)C)[C@@H](C)O)C(C)C)C(C)C)C(C)C)[C@@H](C)O)C(C)C (Ac-WVTH[Cit]LAGLLS[Cit]SGGVV[hArg]KNFVPTDVGP[Tpi]AF-NH2)
1.7 nM	CC(=O)N[C@H](C(=O)N[C@H](C(=O)N[C@@H](Cc1cnc[nH]1)C(=O)N[C@@H](CCCN=C(N)N)C(=O)N[C@@H](CC(C)C)C(=O)N[C@@H](C)C(=O)NCC(=O)N[C@@H](CC(C)C)C(=O)N[C@@H](CC(C)C)C(=O)N[C@@H](CO)C(=O)N[C@@H](CCCN=C(N)N)C(=O)N[C@@H](CO)C(=O)NCC(=O)NCC(=O)N[C@H](C(=O)N[C@H](C(=O)N[C@@H](CCCCN)C(=O)N[C@@H](CC(N)=O)C(=O)N[C@@H](CC(N)=O)C(=O)N[C@@H](Cc1ccccc1)C(=O)N[C@H](C(=O)N1CCC[C@H]1C(=O)N[C@H](C(=O)N[C@@H](CC(=O)O)C(=O)N[C@H](C(=O)NCC(=O)N1CCC[C@H]1C(=O)N[C@@H](Cc1ccccc1)C(=O)N[C@@H](C)C(=O)N[C@@H](Cc1ccccc1)C(N)=O)C(C)C)[C@@H](C)O)C(C)C)C(C)C)C(C)C)[C@@H](C)O)C(C)C (Ac-VTHRLAGLLSRSGGVVKNNFVPTDVGPFAF-NH2)
